Key:
Assay type in all cases: cell-based, human
HPDE = assay: cleaved caspase 3 sandwich ELISA (apoptosis), HPDE; conditions: 29.6 μg/ml biperiden
Procedure: (§1) To determine the effect of biperiden, mepazine and combinations of the two active ingredients on apoptosis in cell lines, a “cleaved caspase 3” sandwich ELISA was used. The pancreatic cancer cell lines L3.6pl res, L3.6pl wt, Panc-1, Panc-2 and the reference cell line HPDE were treated with 29.6 μg/ml biperiden or 25 μM mepazine or 15 μM mepazine+3.7 μg/ml biperiden or only with vehicle (DMSO). The cleaved caspase 3 was measured 24, 48 and 72 hours after incubation. The apoptosis within the cells was measured using a PathScan “cleaved caspase 3” sandwich ELISA (Cell Signaling, #7190C) according to the manufacturers instructions. Each experiment was carried out at least 3 times in duplicate.

L3.6pl res = assay: cleaved caspase 3 sandwich ELISA (apoptosis), L3.6pl res; conditions: 29.6 μg/ml biperiden
Procedure: as §1

L3.6pl wt = assay: cleaved caspase 3 sandwich ELISA (apoptosis), L3.6pl wt; conditions: 29.6 μg/ml biperiden
Procedure: as §1

Panc-1 [1] = assay: cleaved caspase 3 sandwich ELISA (apoptosis), Panc-1; conditions: 29.6 μg/ml biperiden, after 24 hours
Procedure: as §1

Panc-2 = assay: cleaved caspase 3 sandwich ELISA (apoptosis), Panc-2; conditions: 29.6 μg/ml biperiden
Procedure: as §1

BxPC3 = assay: cleaved caspase 3 sandwich ELISA (apoptosis), BxPC3; conditions: 29.6 μg/ml biperiden
Procedure: [The procedure below names another cell line; the source lists this cell line under the same test.] as §1

[2] = tested on: tested cell lines (L3.6pl res, L3.6pl wt, Panc-1, Panc-2, BxPC3, HPDE); assay: cleaved caspase 3 sandwich ELISA (apoptosis), all tested cell lines; conditions: 29.6 μg/ml biperiden
Procedure: To determine the effect of biperiden, mepazine and combinations of the two active ingredients on apoptosis in cell lines, a “cleaved caspase 3” sandwich ELISA was used. […] The cleaved caspase 3 was measured 24, 48 and 72 hours after incubation. The apoptosis within the cells was measured using a PathScan “cleaved caspase 3” sandwich ELISA (Cell Signaling, #7190C) according to the manufacturers instructions. Each experiment was carried out at least 3 times in duplicate.

[3] = tested on: lung carcinoma cell lines A549 und H1299; assay: MTT proliferation assay, lung carcinoma cell lines; conditions: concentrations as in Example 1
Procedure: The proliferation rates of the cell lines were determined after stimulation with (i) biperiden, (ii) mepazine, and (iii) stimulation with both active ingredients. For this purpose, cells were seeded in plates with 96 wells at 5000 cells per well and incubated overnight at 37° C. and 5% CO2. Next morning, the blanket values were measured at 490 nm in an ELISA reader (FLUOstar Omega, BMG LABTECH) after the addition of 100 μL medium and 20 μL MTT substrate (CellTiter 96 AQueous One Solution Cell Proliferation Assay, Promega). Biperiden was added in increasing concentrations (3.71 μg/ml, 11.1 μg/ml und 29.6 μg/ml) in the form of solutions of biperiden hydrochloride (B5311 SIGMA-Aldrich, USA) and DMSO. Mepazine was added in increasing concentrations (15 μM and 25 μM) in the form of solutions of mepazine hydrochloride (MALT1 Inhibitor II, Calbiochem Merck, Millipore Billerica, USA). Combinations of both mepazine and biperiden were added in the following concentrations: 15 μM mepazine+3.71 μg/ml biperiden; 25 μM mepazine+3.71 μg/ml biperiden. The ex-tinction was measured every 24 hours during a period of 72 hours. […]

Panc-1 [4] = assay: MTT proliferation assay, Panc-1
Procedure: The cell lines used for the proliferation assays were cultured in different media. The cell lines Pan-1, Panc-2 and BxPC3, which have been derived from the human ductal pancreatic adenocarcinoma (PDAC), were cultured in Dulbecco's modified Eagle medium (DMEM) (Sigma), that was supplemented with 1% penicillin/streptomycin (Life technologies/GIBCO 15140-122) and 10% fetal bovine serum (Life technologies/GIBCO 100500-064). The cell line L3.6pl was cultured in RPMI 1640 medium (Life technologies/GIBCO 72400-21) that was supplemented with 1% penicillin/streptomycin and 10% fetal bovine serum. […]
The proliferation rates of the cell lines were determined after stimulation with (i) biperiden, (ii) mepazine, and (iii) stimulation with both active ingredients. […] Next morning, the blanket values were measured at 490 nm in an ELISA reader (FLUOstar Omega, BMG LABTECH) after the addition of 100 μL medium and 20 μL MTT substrate (CellTiter 96 AQueous One Solution Cell Proliferation Assay, Promega). […] The ex-tinction was measured every 24 hours during a period of 72 hours.
The normal distribution of the results was analyzed by Kolgomorov-Smirnov test and Shapiro-Wilk test. Non-parametric variables were analyzed using the Mann-Whitney-U test. […]

For OC(CCN1CCCCC1)(c1ccccc1)C1CC2C=CC1C2 (stereo not shown) [biperiden], the “cleaved caspase 3” value (HPDE; after 48 hours) was 265.3±27.8 RLU, the “increase of apoptosis rate compared to vehicle” value (shortened to “increase of apoptosis rate”) (HPDE; after 48 hours, p=0.037) was 132% and the “cleaved caspase 3” value (HPDE; after 72 hours) was 368.4±33.5 RLU. For the same compound, the “increase of apoptosis rate” value (HPDE; after 72 hours, p=0.002) was 283.9%, the “cleaved caspase 3” value (L3.6pl res; after 24 hours) was 770.0±72.5 RLU and the “increase of apoptosis rate” value (L3.6pl res; after 24 hours, p=0.008) was 274%. The “cleaved caspase 3” value (L3.6pl res; after 48 hours) was 848.1±45.7 RLU, the “increase of apoptosis rate” value (L3.6pl res; after 48 hours, p=0.003) was 273.8% and the “cleaved caspase 3” value (L3.6pl res; after 72 hours) was 633.3±55.7 RLU. The “increase of apoptosis rate” value (L3.6pl res; after 72 hours, p=0.021) was 204.0%, the “cleaved caspase 3” value (L3.6pl wt; after 24 hours) was 443.4±18.1 RLU and the “increase of apoptosis rate” value (L3.6pl wt; after 24 hours, p<0.001) was 210.4%. The “cleaved caspase 3” value (L3.6pl wt; after 48 hours) was 386.2±15.9 RLU, the “increase of apoptosis rate” value (L3.6pl wt; after 48 hours, p=0.028) was 83.5% and the “cleaved caspase 3” value (Panc-1 [1]) was 325.1±48.3 RLU. For the same compound, the “increase of apoptosis rate” value (Panc-1 [1]; p=0.049) was 125.3%, the “cleaved caspase 3” value (Panc-2; after 24 hours) was 360.0±11.0 RLU and the “increase of apoptosis rate” value (Panc-2; after 24 hours, p=0.029) was 109.1%. The “cleaved caspase 3” value (Panc-2; after 48 hours) was 306.0±74.8 RLU, the “increase of apoptosis rate” value (Panc-2; after 48 hours, p=0.047) was 65.3% and the “cleaved caspase 3” value (BxPC3; after 24 hours) was 813.1±37.7 RLU. The “increase of apoptosis rate” value (BxPC3; after 24 hours, p=0.002) was 369.8%, the “cleaved caspase 3” value (BxPC3; after 48 hours) was 1046.1 ± 34.7 RLU and the “increase of apoptosis rate” value (BxPC3; after 48 hours, p=0.004) was 357.5%. The “cleaved caspase 3” value (BxPC3; after 72 hours) was 862.8 ± 85.2 RLU, the “increase of apoptosis rate” value (BxPC3; after 72 hours, p=0.032) was 230.9% and the apoptosis [2] was “increased apoptosis was observed in all cell lines”. For the same compound, the “proliferation of lung carcinoma cell lines” value [3] was “inhibited proliferation”.
For CN1CCCC(CN2c3ccccc3Sc3ccccc32)C1 (stereo not shown) [mepazine], the reduction of proliferation (Panc-1 [4]; 15 μM mepazine, p=0.005) was 97.7%, the proliferation (Panc-1 [4]; 25 μM mepazine, p=0.004) was “completely stopped” and the “proliferation of lung carcinoma cell lines” value [3] was “inhibited proliferation”.

From patent publication US20180153870A1, “BIPERIDEN FOR TREATING CANCER” (Universitätsklinikum Hamburg-Eppendorf, priority 2015, published 2018)
